Calls of active or inactive are those of the source. The calls are words filed in the database; no cut-off is given here.
How the values were obtained:
HOS-TE85 [1] = test: Induction of apoptosis in human MNNG/HOS cells assessed as effect on caspase-3 level incubated for 24 hrs by Western blot analysis; type: functional, cell-based
[2] = Metabolic stability in human liver microsomes assessed as half-life at 0.1 uM preincubated for 10 mins followed by NADPH addition and measured upto 60 mins by LC-MS/MS analysis; type: ADME, Microsome; conditions: time < 70 min
HOS-TE85 [3] = test: Antiproliferative activity against human MNNG/HOS cells transfected with DDX5 shRNA assessed as inhibition of cell growth incubated for 72 hrs by CCK8 assay; type: functional, cell-based; conditions: HOS-TE85, 72 h
[4] = Cmax in male ICR mouse at 62.5 mg/kg, ip measured after 24 hrs by LC-MS/MS analysis; type: ADME, organism-based; conditions: in vivo
[5] = Metabolic stability in mouse liver microsomes assessed as half-life at 0.1 uM preincubated for 10 mins followed by NADPH addition and measured upto 60 mins by LC-MS/MS analysis; type: ADME, Microsome; conditions: time < 70 min
[6] = Toxicity in female BALB/c mouse xenografted with human MNNG/HOS cells assessed as effect on liver morphology at 62.5 mg/kg, ip administered twice daily for 23 days by Hematoxylin and Eosin staining based analysis; type: organism-based, HOS-TE85; conditions: in vivo, 552 h, time 23 day
HOS-TE85 [7] = test: Antitumor activity against human MNNG/HOS cells xenografted in female BALB/c mouse assessed as tumor growth inhibition at 62.5 mg/kg, ip administered twice daily for 23 days relative to control; type: functional; conditions: HOS-TE85, 552 h, time 23 day, read-out: TGI
HOS-TE85 [8] = test: Antiproliferative activity against human MNNG/HOS cells assessed as inhibition of cell growth incubated for 72 hrs by CCK8 assay; type: functional, cell-based; conditions: HOS-TE85, 72 h
A549 = test: Antiproliferative activity against human A549 cells assessed as inhibition of cell growth incubated for 72 hrs by CCK8 assay; type: functional, cell-based; conditions: A549, 72 h
[9] = Clearance in male ICR mouse at 12.5 mg/kg, iv measured after 24 hrs by LC-MS/MS analysis; type: ADME, organism-based; conditions: in vivo
[10] = Metabolic stability in human liver microsomes assessed as bioavailability at 0.1 uM preincubated for 10 mins followed by NADPH addition and measured upto 60 mins by LC-MS/MS analysis; type: ADME, Microsome; conditions: time < 70 min
PC-3 = test: Antiproliferative activity against human PC-3 cells assessed as inhibition of cell growth incubated for 72 hrs by CCK8 assay; type: functional, cell-based; conditions: PC-3, 72 h
[11] = Toxicity in female BALB/c mouse xenografted with human MNNG/HOS cells assessed as effect on kidney weight at 62.5 mg/kg, ip administered twice daily for 23 days; type: organism-based, HOS-TE85; conditions: in vivo, 552 h, time 23 day
MG-63 = test: Antiproliferative activity against human MG-63 cells assessed as inhibition of cell growth incubated for 72 hrs by CCK8 assay; type: functional, cell-based; conditions: MG-63, 72 h
HOS-TE85 [12] = test: Induction of apoptosis in human MNNG/HOS cells at 0.11 to 0.44 uM incubated for 24 hrs by Annexin V-FITC/PI staining based analysis; type: functional, cell-based; conditions: dose 0.11-0.44 µM
HOS-TE85 [13] = test: Inhibition of p53 protein expression in human MNNG/HOS cells incubated for 24 hrs by Western blot analysis; type: functional, cell-based
SJSA-1 = test: Antiproliferative activity against human SJSA-1 cells assessed as inhibition of cell growth incubated for 72 hrs by CCK8 assay; type: functional, cell-based; conditions: SJSA-1, 72 h
[14] = Toxicity in female BALB/c mouse xenografted with human MNNG/HOS cells assessed as effect on spleen weight at 62.5 mg/kg, ip administered twice daily for 23 days; type: organism-based, HOS-TE85; conditions: in vivo, 552 h, time 23 day
[15] = Toxicity in female BALB/c mouse xenografted with human MNNG/HOS cells assessed as effect on heart morphology at 62.5 mg/kg, ip administered twice daily for 23 days by Hematoxylin and Eosin staining based analysis; type: organism-based, HOS-TE85; conditions: in vivo, 552 h, time 23 day
HOS-TE85 [16] = test: Inhibition of colony formation in human MNNG/HOS cells incubated for 10 days by crystal violet staining based light microscopic analysis; type: functional, cell-based; conditions: dose 0.1-0.4 µM, time 10.0 day
HOS-TE85 [17] = test: Antitumor activity against human MNNG/HOS cells xenografted in female BALB/c mouse assessed as reduction in tumor volume at 62.5 mg/kg, ip administered twice daily for 23 days; type: functional, organism-based; conditions: time 23.0 day
[18] = Toxicity in female BALB/c mouse xenografted with human MNNG/HOS cells assessed as effect on liver weight at 62.5 mg/kg, ip administered twice daily for 23 days; type: organism-based, HOS-TE85; conditions: in vivo, 552 h, time 23 day
[19] = AUC (0 to infinity) in male ICR mouse at 62.5 mg/kg, ip measured after 24 hrs by LC-MS/MS analysis; type: ADME, organism-based; conditions: in vivo
[20] = Toxicity in female BALB/c mouse xenografted with human MNNG/HOS cells assessed as effect on heart weight at 62.5 mg/kg, ip administered twice daily for 23 days; type: organism-based, HOS-TE85; conditions: in vivo, 552 h, time 23 day
HOS-TE85 [21] = test: Induction of cell cycle arrest in human MNNG/HOS cells incubated for 24 hrs bby PI/RNase A staining based analysis; type: functional
HOS-TE85 [22] = test: Induction of apoptosis in human MNNG/HOS cells assessed as effect on Bcl-2 level incubated for 24 hrs by Western blot analysis; type: functional, cell-based
[23] = Antiproliferative activity against BMSC (unknown origin) assessed as inhibition of cell growth incubated for 72 hrs by CCK8 assay; type: functional, cell-based
HOS-TE85 [24] = test: Inhibition of MYOF protein expression in human MNNG/HOS cells incubated for 24 hrs by Western blot analysis; type: functional, cell-based
HOS-TE85 [25] = test: Induction of apoptosis in human MNNG/HOS cells assessed as effect on Bax level incubated for 24 hrs by Western blot analysis; type: functional, cell-based
[26] = Half-life in male ICR mouse at 12.5 mg/kg, iv measured after 24 hrs by LC-MS/MS analysis; type: ADME, organism-based; conditions: in vivo
[27] = Toxicity in female BALB/c mouse xenografted with human MNNG/HOS cells assessed as effect on spleen morphology at 62.5 mg/kg, ip administered twice daily for 23 days by Hematoxylin and Eosin staining based analysis; type: organism-based, HOS-TE85; conditions: in vivo, 552 h, time 23 day
143B = test: Antiproliferative activity against human 143B cells assessed as inhibition of cell growth incubated for 72 hrs by CCK8 assay; type: functional, cell-based
[28] = AUC (0 to infinity) in male ICR mouse at 12.5 mg/kg, iv measured after 24 hrs by LC-MS/MS analysis; type: ADME, organism-based; conditions: in vivo
[29] = Cmax in male ICR mouse at 12.5 mg/kg, iv measured after 24 hrs by LC-MS/MS analysis; type: ADME, organism-based; conditions: in vivo
[30] = Bioavailability in male ICR mouse at 62.5 mg/kg, ip measured after 24 hrs by LC-MS/MS analysis; type: ADME, organism-based; conditions: in vivo
[31] = Toxicity in female BALB/c mouse xenografted with human MNNG/HOS cells assessed as effect on kidney morphology at 62.5 mg/kg, ip administered twice daily for 23 days by Hematoxylin and Eosin staining based analysis; type: organism-based, HOS-TE85; conditions: in vivo, 552 h, time 23 day
[32] = Half-life in male ICR mouse at 62.5 mg/kg, ip measured after 24 hrs by LC-MS/MS analysis; type: ADME, organism-based; conditions: in vivo
HOS-TE85 [33] = test: Effect on DDX5 protein expression in human MNNG/HOS cells by ABPP assay; type: functional, cell-based
HOS-TE85 [34] = test: Inhibition of cell migration in human MNNG/HOS cells assessed as reduction in closure rate at 0.2 uM incubated for 24 hrs by wound healing assay; type: functional, cell-based
MGC-803 = test: Antiproliferative activity against human MGC-803 cells assessed as inhibition of cell growth incubated for 72 hrs by CCK8 assay; type: functional, cell-based; conditions: MGC-803, 72 h
HOS-TE85 [35] = test: Potency index, ratio of sorafenib IC50 to test compound IC50 for antiproliferative activity against human MNNG/HOS cells; type: functional
SAOS-2 = test: Antiproliferative activity against human SAOS-2 cells assessed as inhibition of cell growth incubated for 72 hrs by CCK8 assay; type: functional, cell-based; conditions: SAOS-2, 72 h

COCCCCNC(=O)c1cccc(C2N(c3ncccc3OC)C(=O)CS2(=O)=O)n1 (racemic)
Activity (HOS-TE85 [1]): inactive | half-life at 0.1 µM [2]: 156 min | IC50 (HOS-TE85 [3]): 277 nM | Cmax [4]: 78.3 ng/mL | half-life at 0.1 µM [5]: 73.8 min | Activity [6]: Non-Toxic | inhibition in vivo at 62.5 mg/kg (HOS-TE85 [7]): 44.6% | IC50 (HOS-TE85 [8]): 217 nM | IC50 (A549): 1890 nM | clearance [9]: 126 mL/min/kg | bioavailability at 0.1 µM [10]: 59.3% | IC50 (PC-3): 4.3 µM | Activity [11]: Non-Toxic | IC50 (MG-63): 1090 nM | Activity (HOS-TE85 [12]): inactive | inhibition (HOS-TE85 [13]): inactive | IC50 (SJSA-1): 304 nM | Activity [14]: Non-Toxic | Activity [15]: Non-Toxic | inhibition (HOS-TE85 [16]): Dose-Dependent Effect | Activity (HOS-TE85 [17]): Active | Activity [18]: Non-Toxic | AUC(0-inf) [19]: 9560 ng·h/mL | Activity [20]: Non-Toxic | Activity (HOS-TE85 [21]): inactive | Activity (HOS-TE85 [22]): inactive | IC50 [23]: 2130 nM | inhibition (HOS-TE85 [24]): inactive | Activity (HOS-TE85 [25]): inactive | half-life [26]: 13.3 min | Activity [27]: Non-Toxic | IC50 (143B): 295 nM | AUC(0-inf) [28]: 1660 ng·h/mL | Cmax [29]: 5420 ng/mL | bioavailability [30]: 115% | Activity [31]: Non-Toxic | half-life [32]: 91.8 min | Activity (HOS-TE85 [33]): inactive | inhibition (HOS-TE85 [34]): Active | IC50 (MGC-803): 394 nM | Ratio IC50 (HOS-TE85 [35]): ~20 | IC50 (SAOS-2): 430 nM

Source: ChEMBL document CHEMBL5518196, “Discovery of potent thiazolidin-4-one sulfone derivatives for inhibition of proliferation of osteosarcoma in vitro and in vivo” (Eur J Med Chem, 2024)
